The subject of one data set is Spodoptera frugiperda. Nature of the data set: Insecticidal activity test against Spodoptera frugiperda (leaf dip, maize seedlings). Type of data set: in vivo. The following applies: Spodoptera frugiperda, foliar. As to the method:
(§1) Various kinds of pests were tested with the compounds of this invention. Unless otherwise specified, the preparation method of samples and definition of the mortality rate of the insects in the embodiments and this invention are as follows: the preparation method of samples is to weigh 10 mg of the compound and dissolve it in 1 mL DMF to prepare 10,000 ppm mother liquid, which is diluted to necessary concentration by 0.05% Tween-80 water, respectively. The mortality rate is the mortality rate of pests under the test concentration, whose calculating formula is: mortality rate (%)=Number of dead pests/total pests*100
(§2) The leaf dip method was used to assay the insecticidal activity. Cut above ground part of fresh maize seedlings (about 10 cm). Dip the maize seedlings into the solution prepared with compound of this invention for 10 seconds and dry them in a cool environment. Then cut the dry maize seedlings into 3-5 cm leaf sections and put 3 leaf sections into each petri dish. Put ten of 3th-instar larvae of Spodoptera frugiperda into each dish, which was repeated by 3 times. Then the dishes were placed in an illumination incubator and incubated with 14 hL: 10 hD illumination at 25° C. Symptoms were investigated on the 1st, 2nd and 3rd day after treatment, and the mortality was calculated.

The subject of another data set is Aphis craccivora. Nature of the data set: Insecticidal activity test against Aphis craccivora (broad bean leaf dip). The note with it: Aphis craccivora, foliar; 40 ppm, 3rd day after treatment; read-out: insecticidal activity (mortality of Aphis craccivora). It is filed as in vivo. The protocol: as §1
Cut a single leaf of broad bean with stem and insert it into a glass jar filled with water (capacity of 20 ml). Five adult Aphis craccivoras were seeded onto each leaf, and covered with plastic cups with holes. The adult aphids were removed after 24 hours. Before the experiment, the base number was investigated and the single leaf with more than 15 nymphs aphids was selected for the experiment. Dip leaf of broad bean with nymphs aphids into the solution of test compound 10s, take out and dry them in a cool environment, 3 parallel repeats. Place the glass jars on the shelf of observation room and covered with plastic cups with holes. 20-25° C. with 14 hL: 10 hD illumination. The number of Aphis craccivora death and alive was investigated on the 3rd day after treatment, and the mortality was calculated.

The test system of another data set is Mythimna separata. Nature of the data set: Insecticidal activity test against Mythimna separata (leaf dip, maize seedlings). Type of data set: in vivo. The note with it: foliar, 0.04 ppm, 3rd day after treatment, read-out: insecticidal activity (mortality of Mythimna separate). The protocol:
as §1
as §2, with “Mythimna separatas” for “Spodoptera frugiperda”

A further data set has as its system Chilo suppressalis. Nature of the data set: Insecticidal activity test against Chilo suppressalis (rice stem dip). It is filed as in vivo. The following applies: 1 ppm, 3rd day after treatment, read-out: insecticidal activity (mortality of Chilo suppressalis). The protocol: as §1
The rice was cultivated in a plastic pot with a diameter of 9 cm and a height of 10 cm. When the rice grew to 25 cm, the aerial part of robust and consistent rice seedlings was selectively cut. Their leaves were removed and their stems of about 8 cm were kept for use. Pour the solution prepared with compound of this invention into the Petri dish (about 40 mL) and dip the rice stems into the solution for 10 seconds. Take rice stems out and dry them in a cool environment. Put a wet cotton ball at the bottom of finger-like glass tube and 5 rice stems in each tube. Put 10 of 3rd-instar larvae of Chilo suppressa into each tube, which was repeated by 3 times. Seal the tubes with black cotton cloth and tighten them with rubber band. The tubes were placed in a illumination incubator at 28° C. and incubated in the dark (incubated without light). The dead number of Chilo suppressalis was investigated 3 days after treatment. The mortality was calculated.

A further data set relates to Spodoptera litura. Description: Insecticidal activity test against Spodoptera litura (leaf dip, cabbage leaf discs). Type of data set: in vivo. The following applies: foliar. The protocol:
as §1
The leaf dip method was used to assay the insecticidal activity. Healthy and pesticide-untreated cabbage leaves was selected to prepare 1 cm of leaf discs by diameter. Dip the leaf discs into the solution prepared with compound of this invention for 10 seconds and dry them in a cool […] environment. Then place them in 24-well plate with 3 discs per pore. Put 10 of Spodoptera litura into each pore, which was repeated by 3 times. The 24-well plate was placed in an illumination incubator and incubated with 14 hL: 10 hD illumination at 25° C. The dead number of Spodoptera litura was investigated on the 3rd day after treatment, and the mortality was calculated.

Where two headings read alike, the source gives them in different places.

In general, melting point refers to the temperature of the solid-liquid transition. Take `N#Cc1ccc(C(=O)N(CC2CC2)c2cccc(C(=O)Nc3c(Br)cc(C(C(F)(F)F)C(F)(F)F)cc3OC(F)F)c2F)cc1` [Compound 26, N-(2-bromo-6-(difluoromethoxy)-4-(1,1,1,3,3,3-hexafluoropropan-2-yl)phenyl)-3-(4-cyano-N-(cyclopropylmethyl)benzamido)-2-fluorobenzamide]: the melting point is 133.1 to 135.5 °C.

Usually mortality stands for the percentage killed. Take `O=C(Nc1c(Br)cc(C(F)(C(F)(F)F)C(F)(F)F)cc1OC(F)F)c1cccc(N(CC2CC2)C(=O)c2ccc(F)nc2)c1F` [Compound 118, N-(3-((2-bromo-6-(difluoromethoxy)-4-(perfluoropropan-2-yl)phenyl)carbamoyl)-2-fluorophenyl)-N-(cyclopropylmethyl)-6-fluoronicotinamide]: the mortality at 0.1 ppm in the data set on Spodoptera frugiperda (24 h, read-out: Mortality (%) against Spodoptera frugiperda, 1 d) was found to be 29.2%; in the data set on Spodoptera frugiperda (48 h, read-out: Mortality (%) against Spodoptera frugiperda, 2 d) it was 66.7%; in the data set with Spodoptera frugiperda (72 h, read-out: Mortality (%) against Spodoptera frugiperda, 3 d), 91.7%; with Spodoptera litura (72 h, 0.1 ppm, 3 d), 95.8%. The mortality at 1 ppm in the data set on Spodoptera frugiperda (read-out: insecticidal activity (mortality of Spodoptera frugiperda)) and in the data set on Chilo suppressalis was at least 90% each time. Moreover, the mortality at 40 ppm in the data set with Aphis craccivora is at least 90%. The mortality at 0.04 ppm is at least 90% in the data set on Mythimna separata and 66.7% in the data set on Spodoptera litura (72 h, 0.04 ppm, 3 d). Also, the mortality at 0.4 ppm in the data set on Spodoptera litura (0.4 ppm, 3rd day after treatment) is at least 90%.
